In ChEMBL document CHEMBL1201862, “PubChem BioAssay data set” (2004):
The source made the active and inactive calls.

Experiments:
[1] = molecular target: T1, DNA repair and recombination protein RAD54-like (Homo sapiens, UniProt Q92698); experiment: RAD54 Holliday junction migration blockers – biochemical, fluorescence, cherry-picked samples, dose series, confirmation (AID 651657); type: functional
T1 sequence (Q92698 whole entry): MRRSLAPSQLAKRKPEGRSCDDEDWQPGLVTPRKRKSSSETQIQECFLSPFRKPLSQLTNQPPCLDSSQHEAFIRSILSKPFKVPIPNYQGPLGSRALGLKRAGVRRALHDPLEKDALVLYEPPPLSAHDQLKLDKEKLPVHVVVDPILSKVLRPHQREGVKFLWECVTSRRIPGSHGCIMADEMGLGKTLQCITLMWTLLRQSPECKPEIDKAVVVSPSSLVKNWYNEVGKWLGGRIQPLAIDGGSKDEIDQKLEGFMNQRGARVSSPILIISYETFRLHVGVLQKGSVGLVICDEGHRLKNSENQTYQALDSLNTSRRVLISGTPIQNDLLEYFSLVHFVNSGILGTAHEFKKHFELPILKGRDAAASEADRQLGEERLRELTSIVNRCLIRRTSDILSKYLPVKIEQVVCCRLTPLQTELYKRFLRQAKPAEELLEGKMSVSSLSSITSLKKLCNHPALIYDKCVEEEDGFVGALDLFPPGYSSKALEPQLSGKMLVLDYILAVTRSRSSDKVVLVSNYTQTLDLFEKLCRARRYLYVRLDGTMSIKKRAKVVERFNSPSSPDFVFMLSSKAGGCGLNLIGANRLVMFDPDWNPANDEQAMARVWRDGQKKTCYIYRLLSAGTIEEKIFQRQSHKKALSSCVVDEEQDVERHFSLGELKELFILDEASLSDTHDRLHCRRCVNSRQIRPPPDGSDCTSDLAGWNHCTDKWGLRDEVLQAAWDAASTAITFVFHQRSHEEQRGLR

[2] = molecular target: T2, DNA repair protein RAD52 homolog (Homo sapiens, UniProt P43351); type: functional, biochemical
T2 sequence (P43351 whole entry): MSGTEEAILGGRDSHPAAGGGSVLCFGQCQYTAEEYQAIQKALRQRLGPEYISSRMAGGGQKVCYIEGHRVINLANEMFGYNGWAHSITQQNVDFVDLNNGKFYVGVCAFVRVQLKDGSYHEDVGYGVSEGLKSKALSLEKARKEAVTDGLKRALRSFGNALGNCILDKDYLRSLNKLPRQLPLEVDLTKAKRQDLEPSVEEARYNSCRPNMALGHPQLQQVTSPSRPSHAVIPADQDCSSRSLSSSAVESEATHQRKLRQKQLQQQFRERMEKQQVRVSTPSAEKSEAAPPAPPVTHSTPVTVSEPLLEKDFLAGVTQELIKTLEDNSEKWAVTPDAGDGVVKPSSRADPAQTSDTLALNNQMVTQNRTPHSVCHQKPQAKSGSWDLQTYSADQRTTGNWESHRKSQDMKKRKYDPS

[3] = Fluorescence-based cell-based high throughput dose response assay for inhibitors of the interaction of nucleotide-binding oligomerization domain containing 2 (NOD2) and the receptor-interacting serine-threonine kinase 2 (RIPK2).; type: functional; settings: Homo sapiens
[4] = viability loss in human Jurkat cells – cell-based, luminescence, cytotoxicity control for P. falciparum gametocyte viability project, dose response (AID 1117277); type: functional;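 also: potency reflects loss of cellular ATP meaning fewer viable cells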
[5] = viability inhibitors of stage V gametocytes – luminescence, dose response (AID 1117278); type: functional, cell-based;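 also: gametocytes exposed to compound for 24 hours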
[6] = HGIII-sPLA2 enzyme inhibition potency – biochemical, QFRET, IC50, dose response (AID 743457);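 also: green fluorescence rise as the enzyme cleaves BODIPY PC-A2 in liposomes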
[7] = DRD fibroblast viability loss – cell-based, non-viral oncogenic, luminescence, dose response (AID 1934); type: functional; settings: Homo sapiens
BJ [8] = experiment: BJ-TERT-LT-ST fibroblast viability loss – cell-based, RAS-independent, luminescence, dose response (AID 1935); type: functional; settings: Homo sapiens;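 also: BJ fibroblasts immortalized with TERT plus LT and ST oncogenes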
[9] = HEK-293T viability loss after treatment – luminescence, T-cell screen hits, cytotoxicity control for TCR NF-kB inhibitor project, dose response (AID 489026); type: functional, cell-based;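 also: cells exposed to compound about 14 hours before the viability readout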
BJ [10] = experiment: cells; type: functional, cell-based; settings: Homo sapiens
BJ [11] = experiment: BJ-TERT fibroblast viability loss – cell-based, RAS-independent, luminescence, dose response (AID 1933); type: functional; settings: Homo sapiens
cells [12] = type: functional, cell-based
[13] = molecular target: T3, Nuclear receptor subfamily 0 group B member 1 (Homo sapiens, UniProt P51843); type: functional, cell-based;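 also: HEK293T cells transfected with SF-1 and DAX-1 plus StAR promoter luciferase reporter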
T3 sequence (P51843 whole entry): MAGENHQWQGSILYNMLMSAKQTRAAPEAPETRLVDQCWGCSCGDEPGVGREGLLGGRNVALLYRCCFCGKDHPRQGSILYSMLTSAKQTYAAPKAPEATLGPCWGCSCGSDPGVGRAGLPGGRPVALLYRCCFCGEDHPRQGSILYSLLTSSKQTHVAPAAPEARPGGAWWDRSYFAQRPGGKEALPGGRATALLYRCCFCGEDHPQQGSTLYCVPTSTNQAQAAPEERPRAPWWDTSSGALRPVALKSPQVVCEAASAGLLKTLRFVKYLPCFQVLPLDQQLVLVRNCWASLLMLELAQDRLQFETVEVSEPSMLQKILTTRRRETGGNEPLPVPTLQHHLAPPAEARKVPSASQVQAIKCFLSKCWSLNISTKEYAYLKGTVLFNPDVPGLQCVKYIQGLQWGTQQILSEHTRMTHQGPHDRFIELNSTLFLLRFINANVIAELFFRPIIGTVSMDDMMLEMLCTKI

[14] = off-target signal loss in HeLa-CEM21 co-culture – HeLa F-luc CTL cells, cherry-picked, counter-screen for HIV-1 Env fusion inhibitor project, dose response (AID 652040); type: functional, cell-based;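 also: potency for signal decrease marking cytotoxic or nonspecific inhibition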
[15] = molecular target: Mitogen-activated protein kinase 10 (Homo sapiens, UniProt P53779); experiment: Dose response biochemical screening assay for inhibitors of c-Jun N-Terminal Kinase 3 (JNK3). [Related pubchem assays: 746 ]
[16] = blockers of HIV-1 envelope-mediated cell-cell fusion – cherry-pick, dose response (AID 652057); type: functional, cell-based
[17] = HIV-1 AD8 envelope cell-cell fusion blockers – cherry-pick, dose response (AID 652062); type: functional, cell-based;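 also: luciferase signal from cell-cell fusion driven by HIV-1 clade B AD8 Env; potency is for inhibitors of fusion seen as a drop in luminescence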
[18] = blockers of HIV-1 ZM109 envelope-driven cell-cell fusion – HeLa effector, CEM target cells, luciferase, cherry-pick, dose response (AID 652058); type: functional, cell-based;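 also: luciferase signal from HIV-1 Env mediated cell-cell fusion of effector and target cells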
[19] = viability loss in CEM21 cells – cell-based, CellTiter-Glo luminescence, cherry-picked, cytotoxicity control for viral fusion inhibitor project, dose response (AID 652042); type: functional;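 also: potency for signal decrease meaning cytotoxicity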
Prothrombin = Prothrombin (Homo sapiens, UniProt P00734); experiment: Thrombin 1536 HTS Dose Response Confirmation. [Related pubchem assays: 1046 (Thrombin 1536 HTS; hits were confirmed in this assay)]; type: functional
[20] = luciferase reporter signal suppression in cells – H4 neuroglioma cells, luminescence, dose response (AID 1990); type: functional, cell-based
[21] = Trypanosoma cruzi growth suppression in host cells – NIH3T3 host cells, beta-gal luminescence, confirmation (AID 2044); type: functional, cell-based;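 also: intracellular parasites grown in NIH/3T3 mouse fibroblasts as host cells; luminescent beta-galactosidase reporter signal from transgenic T. cruzi replicating inside host cells; inhibitors lower the luminescence signal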
[22] = alpha-synuclein stem-loop luciferase translation blockers – H4 neuroglioma cells, luminescence, confirmation (AID 1988); type: functional, cell-based
[23] = NIH3T3 cell viability loss – ATP luminescence, mouse fibroblasts, counter-screen, dose response (AID 2010); type: functional, cell-based;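 also: cells exposed to compound for about 90 hours before reading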
[24] = Luminescence Cell-Based Dose Response HTS to Identify Inhibitors of 5'UTR Stem-Loop Driven Prion Protein mRNA Translation in H4 Neuroglioblastoma Cells. [Related pubchem assays: 1827 (Project Summary), 1813 (Primary HTS)]; type: functional
[25] = viability of uninfected HEp-2 cells – cell-based, HTS, cytotoxicity control for RSV inhibitor project, dose response (AID 2410); type: functional; settings: human respiratory syncytial virus
cells [26] = type: functional, cell-based; remark: listed apart in the source
cells [27] = type: functional, cell-based; remark: listed apart in the source
Paired box protein Pax-8 = Paired box protein Pax-8 (Homo sapiens, UniProt Q06710); experiment: PAX8 transcriptional activity inhibition in RMG-I – RMG-I cells, luciferase, cherry-pick, dose response (AID 687027); type: functional, cell-based;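 also: luciferase reporter driven by Pax8 target thyroperoxidase promoter measured by SteadyGlo luminescence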
[28] = molecular target: FAD-linked sulfhydryl oxidase ALR (Homo sapiens, UniProt P55789); experiment: ALR-catalysed DTT oxidation blockers – biochemical, H2O2 detection, luminescence, cherry-pick, dose response (AID 493248)
FAD-linked sulfhydryl oxidase ALR, sequence (P55789 whole entry): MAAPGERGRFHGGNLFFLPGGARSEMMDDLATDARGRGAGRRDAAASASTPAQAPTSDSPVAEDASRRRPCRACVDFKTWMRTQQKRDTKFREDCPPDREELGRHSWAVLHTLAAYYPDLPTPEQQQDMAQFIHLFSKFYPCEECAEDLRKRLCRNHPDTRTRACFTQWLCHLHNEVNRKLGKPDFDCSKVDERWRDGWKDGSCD

Mitogen-activated protein kinase 10, sequence (P53779 whole entry, the tested form may be a part): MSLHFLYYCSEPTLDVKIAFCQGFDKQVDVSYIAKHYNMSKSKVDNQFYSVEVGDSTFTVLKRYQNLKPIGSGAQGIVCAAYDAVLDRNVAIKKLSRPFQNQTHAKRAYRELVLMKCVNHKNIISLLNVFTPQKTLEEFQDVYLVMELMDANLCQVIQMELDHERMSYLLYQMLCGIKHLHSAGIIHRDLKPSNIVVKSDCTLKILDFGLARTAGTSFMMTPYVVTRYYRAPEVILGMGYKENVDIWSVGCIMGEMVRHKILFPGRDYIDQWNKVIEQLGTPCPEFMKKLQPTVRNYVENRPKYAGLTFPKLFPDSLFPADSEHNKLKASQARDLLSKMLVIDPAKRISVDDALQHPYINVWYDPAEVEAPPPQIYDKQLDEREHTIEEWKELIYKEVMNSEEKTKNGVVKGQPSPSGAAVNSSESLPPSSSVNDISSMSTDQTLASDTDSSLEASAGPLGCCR
Paired box protein Pax-8, sequence (Q06710 whole entry): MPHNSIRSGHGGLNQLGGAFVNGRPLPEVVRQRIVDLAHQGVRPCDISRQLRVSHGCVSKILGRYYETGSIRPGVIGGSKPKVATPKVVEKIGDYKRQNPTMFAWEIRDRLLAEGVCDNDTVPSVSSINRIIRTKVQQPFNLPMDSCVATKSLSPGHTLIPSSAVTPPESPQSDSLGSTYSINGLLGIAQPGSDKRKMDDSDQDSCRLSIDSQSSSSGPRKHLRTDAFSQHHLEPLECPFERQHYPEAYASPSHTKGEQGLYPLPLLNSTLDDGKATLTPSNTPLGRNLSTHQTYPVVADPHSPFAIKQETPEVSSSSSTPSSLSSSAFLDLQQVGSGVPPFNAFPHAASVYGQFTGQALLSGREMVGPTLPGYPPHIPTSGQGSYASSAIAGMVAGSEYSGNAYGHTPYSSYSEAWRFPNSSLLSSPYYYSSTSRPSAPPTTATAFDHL

Cc1cccc(-c2nc(NCCCN(C)C)c3ccccc3n2)c1
AC50 [1]: 21.4 µM (active)
AC50 [2]: 9.69 µM (active)

c1ccc2c3nc[nH]c(N4CCN(C5CCCCC5)CC4)c-3nc2c1
AC50 [1]: 40.5 µM (active)

Cc1noc2ncnc(Sc3c(Cl)cccc3Cl)c12
IC50 [3]: 4.6 µM (active)

O=C(NC(Cc1ccc(O)cc1)C(=O)O)c1ccco1 (stereo not drawn)
IC50 [4]: > 83.3 µM (inactive)
IC50 [5]: > 109 µM (inactive)

Cc1cc(C)c2sc(NNC(=O)C3COc4ccccc4O3)nc2c1 (stereo not drawn)
IC50 [6]: 26.2 µM (inactive)

CC(=O)Nc1ccc(S(=O)(=O)N2c3ccccc3C(C)=CC2(C)C)cc1
EC50 [7]: 10.4 µM (inconclusive)
EC50 (BJ [8]): 9.33 µM (inconclusive)
IC50 [3]: 49.7 µM (inactive)
IC50 [9]: > 80 µM (inactive)
EC50 (BJ [10]): 13 µM (inconclusive)
EC50 (BJ [11]): 7.82 µM (inconclusive)

O=C(COc1ccc(Cl)cc1Cl)NC(=O)NC1CCCC1
IC50 (cells [12]): > 67.5 µM (inactive)
IC50 [13]: > 67.5 µM (inactive)

CC1CCCC(C)N1CCCNC(=O)c1nn(C)c2c1CSc1ccccc1-2 (stereo not drawn)
AC50 [14]: > 70 µM (inactive)

CCOc1ccccc1NC(=O)COc1cccc(-n2cnnn2)c1
IC50 [15]: 69.2 µM (not active)

COc1ccc(CCC(C)NCc2ccc(Cl)c(Cl)c2)cc1 (stereo not drawn)
AC50 [16]: 5.33 µM (active)
AC50 [17]: 6.23 µM (active)
AC50 [18]: 7.63 µM (active)
AC50 [14]: 8.87 µM (active)
AC50 [19]: 59.6 µM (active)

COC(=O)c1ccccc1NC(=O)COC(=O)c1ccco1
IC50 [15]: 56.7 µM (not active)

O=C(c1ccccc1)n1nc(-c2ccccc2)nc1NCc1ccco1
IC50 (Prothrombin): 1.72 µM (active)

CC(C)(C)C(=O)N1CCN(c2ccc(Cl)cc2[N+](=O)[O-])CC1
IC50 [4]: > 83.3 µM (inactive)
IC50 [5]: > 109 µM (inactive)

FC(F)(F)c1cnc(NN=C(S)Nc2cccnc2)c(Cl)c1
IC50 [6]: > 122 µM (inactive)

CCc1cccc2c1Sc1ccccc1CC2N1CCNCC1 (stereo not drawn)
EC50 [20]: > 120 µM (not active)
EC50 [21]: 3.99 µM (active)
EC50 [22]: > 120 µM (not active)
EC50 [23]: 9.15 µM (active)
EC50 [24]: > 120 µM (not active)
CC50 [25]: 13 µM (active)
AC50 [2]: 18 µM (active)

CC(C)Oc1ccc(C2CC(=O)N(c3cccc(C(=O)O)c3)C2=O)cc1 (stereo not drawn)
IC50 [4]: > 83.3 µM (inactive)
IC50 [5]: > 109 µM (inactive)

COc1ccc(COC(=O)C2=C(C)NC(=O)NC2c2ccc(O)c(OC)c2)cc1 (stereo not drawn)
IC50 [15]: 33.8 µM (not active)

COc1ccc(-n2cc(-c3ccccc3)nc2S)cc1
IC50 [6]: > 122 µM (inactive)

CCC(C)NCCOc1ccc(C)cc1[N+](=O)[O-] (stereo not drawn)
IC50 (Prothrombin): > 50 µM (not active)
EC50 (cells [26]): > 350 µM (not active)
EC50 (cells [27]): > 350 µM (not active)

c1cc2cc(CNc3nc(NCC4CC4)nc4ccsc34)ccc2o1
AC50 [16]: 4.73 µM (active)
AC50 [17]: 22.5 µM (active)
AC50 [18]: 33.1 µM (active)
AC50 [14]: 8.05 µM (active)
AC50 [19]: 35.9 µM (active)

COc1c(C=O)c2c(c(OC)c1OC)-c1ccc(OC)c(=O)cc1C(NC(C)=O)CC2 (stereo not drawn)
IC50 (cells [12]): > 67.5 µM (inactive)
IC50 [13]: > 67.5 µM (inactive)
AC50 (Paired box protein Pax-8): < 260 nM (active)

Oc1ccc2c3c1O[C@H]1c4[nH]c5c(c4CC4(O)C(C2)N(CC2CC2)CCC314)CC1(O)[C@H]2Cc3ccc(O)c4c3[C@@]1(CCN2CC1CC1)C5O4 (stereo partly drawn)
AC50 [2]: 11.1 µM (active)

COc1ccc(/C=N/Nc2nc3ccccc3o2)cc1O
AC50 [28]: 2.59 µM (active)
IC50 (cells [12]): > 67.5 µM (inactive)
IC50 [13]: > 67.5 µM (inactive)
